Source: patent US20040033963A1, “Urea composition” (priority 2002, published 2004)

Experiment: Antioxidant screening: prevention or retardation of air oxidation of anthralin, hydroquinone or banana peel
Conditions: screening methods: air oxidation of anthralin
Protocol: The antioxidant property of some hydroxyacids, polyhydroxy acids and lactones are determined as follows. Oxidation by definition is removal of electrons or addition of oxygen. An antioxidant can be defined as a substance capable of preventing or inhibiting oxidation, or capable of disposing, scavenging, or suppressing formation or actions of peroxide, superoxide or free radicals. We have developed three simple assays to determine if a substance is an antioxidant or not. The antioxidant property is determined by using one of the following screening methods: prevention or retardation of air oxidation of (a) anthralin, (b) hydroquinone, or (c) banana peel. A freshly prepared anthralin solution or cream is bright yellow, and an air oxidized one is brownish or black. A hydroquinone solution or cream is colorless or white color, and an air-oxidized one is brownish or black. A freshly peeled banana peel is light yellow in color, and an oxidized one ranges in color from tan, dark tan, brown to brownish black.
Known antioxidants such as vitamin C and N-acetylcysteine may be used as the positive control in these screening methods.

For `O=C1O[C@H]([C@@H](O)CO)C(O)=C1O` [ascorbic acid], which antioxidant property is on record?
The antioxidant property was “antioxidants”.

With `O=C(O)CC(O)(CC(=O)O)C(=O)O` [citric acid] as the compound, how does the antioxidant property read?
Its antioxidant property is “antioxidants”.

Which antioxidant property does the source give for `O=C1O[C@@H]([C@H](O)CO)[C@H](O)[C@H]1O` [galactonolactone] here?
Its antioxidant property is “antioxidants”.

For `O=C(O)[C@@H](O)[C@H]1OC(=O)[C@H](O)[C@H]1O` [glucarolactone], which antioxidant property is on record?
The antioxidant property was “antioxidants”.

Which antioxidant property does the source give for `O=C1O[C@@H]([C@H](O)[C@H](O)CO)[C@@H](O)C1O` (stereo partly shown) [glucoheptonolactone] here?
The antioxidant property was “antioxidants”.

Which antioxidant property does the source give for `O=C(O)[C@H](O)[C@@H](O)[C@H](O)[C@H](O)CO` [gluconic acid] here?
The antioxidant property was “antioxidants”.

For `O=C1O[C@H](CO)[C@@H](O)[C@H](O)[C@H]1O` [gluconolactone], which antioxidant property is on record?
Its antioxidant property is “antioxidants”.

Which antioxidant property does the source give for `O=C[C@H](O)[C@H]1OC(=O)[C@@H](O)[C@H]1O` [glucuronolactone] here?
Its antioxidant property is “antioxidants”.

With `O=C1O[C@H]([C@H](O)CO)C(O)=C1O` [isoascorbic acid] as the compound, how does the antioxidant property read?
The antioxidant property was “antioxidants”.

With `O=C(O)CC(C(=O)O)C(O)C(=O)O` (stereo not shown) [isocitric acid] as the compound, how does the antioxidant property read?
The antioxidant property was “antioxidants”.

With `O=C(O)CC(O)C(=O)O` (stereo not shown) [malic acid] as the compound, how does the antioxidant property read?
The antioxidant property was “antioxidants”.

For `O=C1O[C@H](CO)[C@@H](O)[C@H]1O` [ribonolactone], which antioxidant property is on record?
The antioxidant property was “antioxidants”.

Which antioxidant property does the source give for `O=C(O)C(O)C(=O)O` [tartronic acid] here?
Its antioxidant property is “antioxidants”.
